Measurements published in US7384983B2, “Inhibitor of monoamine uptake” (Eli Lilly and Company, priority 2001, dated 2008).

Tests used:
[1] = biological target: uptake of norepinephrine; assay: Microdialysis Assays of Monoamines: inhibition of norepinephrine uptake; type: in vivo, Sprague-Dawley rats; settings: tested essentially as described for microdialysis assays
Protocol: (§1) Microdialysis Assays of Monoamines
(§2) Sprague-Dawley rats (Harlan or Charles River) weighing 270-300 grams are surgically implanted with microdialysis probes under chloral hydrate/pentobarbital anesthesia (170 and 36 mg/kg i.p. in 30% propylene glycol, 14% ethanol) as described by Perry and Fuller. (Perry and Fuller, Effect of fluoxetine on serotonin and dopamine concentration in rat hypothalamus after administration of fluoxetine plus L-5-hydroxytryptophan, Life Sci., 50, 1683-90 (1992)). A David Kopf stereotaxic instrument is used to implant the probe unilaterally in the hypothalamus at coordinates rostral −1.5 mm, lateral −1.3 mm, and ventral −9.0 mm (Paxinos and Watson, 1986). After a 48-hour recovery period, rats are placed in a large plastic bowl with a mounted liquid swivel system (CMA/120 system for freely moving animals, Bioanalytical Systems, West Lafayette, Ind.). Filtered artificial cerebrospinal fluid (CSF) (150 mM NaCl, 3.0 MM KCl, 1.7 mM CaCl2, and 0.9 mM MgCl2) is perfused through the probe at a rate of […]. […]
(§3) The method used to measure monoamines is as described by Perry and Fuller (1992). […] The electrochemical detector (EG&G, Model 400) for the amine column is set at a potential of 400 mV and a sensitivity of 0.2 nA/V. Basal levels are measured for at least 90 minutes prior to drug administration. […]

[2] = biological target: uptake of serotonin; assay: Microdialysis Assays of Monoamines: inhibition of serotonin uptake; settings: tested essentially as described for microdialysis assays
Protocol: as §1, §2, §3

## CNCC[C@@H](Oc1ccc(O)cc1C)c1ccccc1 [R-(−)-N-methyl 3-((2-methyl-4-hydroxyphenyl)oxy)-3-phenyl-1-aminopropane]
[1]
  Ki: 3 nM
[2]
  Ki: 43 nM
